US11858951B2, “Boronic acid derivatives” (Merck Patent GmbH, priority 2017, dated 2024)

Legend:
[1] = target: Beta5 (purified human constitutive proteasome) (Homo sapiens, UniProt P28074); experiment: Determination of Beta5 activity (fluorescence intensity assay, Suc-LLVY-AMC); format: biochemical; settings: incubation for 20 minutes at 25° C.; concentrations 30 μM to 15 pM; read-out: Beta5 IC50
Experimental: Determination of Beta5 Activity:
Measurement of Beta5 inhibition is performed in 384 well format based on fluorescence intensity assay.
(§1) Purified human constitutive proteasome (1.25 nM) and serial diluted compounds in DMSO (range of concentrations from 30 μM to 15 pM) or controls are incubated for 20 minutes or 120 minutes (long incubation) at 25° C. in assay buffer containing 50 mM Tris pH 7.4, 0.03% SDS, 1 mM EDTA and 1% DMSO. The reaction is initiated by the addition of the fluorogenic peptide substrate, Suc-LLVY-AMC (Bachem 1-1395), at a concentration of 40 μM. After 60 minutes of incubation at 37° C., fluorescence intensity is measured at λex=350 nm and λem=450 nm with a fluorescence reader (Perkin Elmer Envision reader or equivalent).
(§2) Unless indicated otherwise the results are obtained after incubation for 20 minutes.

[2] = target: LMP7 (purified human immuno proteasome) (Homo sapiens, UniProt P28062); experiment: Determination of LMP7 activity (fluorescence intensity assay, Suc-LLVY-AMC); format: biochemical; settings: for Selectivity LMP7 vs Beta5: LMP7 versus Beta5, incubation for 20 minutes; for IC50: incubation for 20 minutes at 25° C., concentrations 30 μM to 15 pM, read-out: LMP7 IC50
Experimental: Biological Activity Determination of LMP7 Activity:
Measurement of LMP7 inhibition is performed in 384 well format based on fluorescence intensity assay.
as §1, with “immuno” for “constitutive”, “(0.25” for “(1.25”
as §2

SMILES	IC50 [1] [µM]	Selectivity LMP7 vs Beta5 [2]	IC50 [2] [µM]
O=C(N[C@@H](C[C@@H]1COc2ccccc21)B(O)O)[C@@H]1C[C@H]2CC[C@@H]1O2 [Compound No. 1, [(1R)-2-[(3S)-2,3-dihydro-1-benzofuran-3-yl]-1-{[(1S,2R,4R)-7-oxabicyclo[2.2.1]heptan-2-yl]formamido}ethyl]boronic acid]	5 to 30	+++++ (Selectivity ≥700)	< 0.05
O=C(N[C@@H](Cc1coc2ccccc12)B(O)O)[C@@H]1C[C@H]2CC[C@@H]1O2 [Compound No. 9, [(1R)-2-(1-benzofuran-3-yl)-1-{[(1S,2R,4R)-7-oxabicyclo[2.2.1]heptan-2-yl]formamido}ethyl]boronic acid]	0.5 to 5	+++++ (Selectivity ≥700)	< 0.05
O=C(N[C@@H](Cc1coc2c(Cl)cccc12)B(O)O)[C@@H]1C[C@H]2CC[C@@H]1O2 [Compound No. 13, [(1R)-2-(7-chloro-1-benzofuran-3-yl)-1-{[(1S,2R,4R)-7-oxabicyclo[2.2.1]heptan-2-yl]formamido}ethyl]boronic acid]	0.5 to 5	+++++ (Selectivity ≥700)	< 0.05
O=C(N[C@@H](C[C@@H]1COc2ccccc21)B(O)O)[C@H]1C[C@@H]2CC[C@H]1O2 [compound 2, [(1R)-2-[(3S)-2,3-dihydro-1-benzofuran-3-yl]-1-{[(1R,2S,4S)-7-oxabicyclo[2.2.1]heptan-2-yl]formamido}ethyl]boronic acid]	5 to 30	+++ (300 ≤ Selectivity < 500)	0.05 to 0.5
O=C(N[C@@H](Cc1ccsc1)B(O)O)[C@@H]1C[C@H]2CC[C@@H]1O2 [compound 3, [(1R)-1-{[(1S,2R,4R)-7-oxabicyclo[2.2.1]heptan-2-yl]formamido}-2-(thiophen-3-yl)ethyl]boronic acid]	> 30	–	0.5 to 5
O=C(N[C@@H](Cc1coc2ccccc12)B(O)O)[C@H]1C[C@@H]2CC[C@H]1O2 [compound 8, [(1R)-2-(1-benzofuran-3-yl)-1-{[(1R,2S,4S)-7-oxabicyclo[2.2.1]heptan-2-yl]formamido}ethyl]boronic acid]	5 to 30	++++ (500 ≤ Selectivity < 700)	< 0.05
O=C(N[C@@H](Cc1coc2c(Cl)cccc12)B(O)O)[C@H]1C[C@@H]2CC[C@H]1O2 [compound 12, [(1R)-2-(7-chloro-1-benzofuran-3-yl)-1-{[(1R,2S,4S)-7-oxabicyclo[2.2.1]heptan-2-yl]formamido}ethyl]boronic acid]	5 to 30	+++++ (Selectivity ≥700)	< 0.05
Cc1cccc2c1OC[C@@H]2C[C@H](NC(=O)[C@@H]1C[C@H]2CC[C@@H]1O2)B(O)O [compound 14, [(1R)-2-[(3R)-7-methyl-2,3-dihydro-1-benzofuran-3-yl]-1-{[(1S,2R,4R)-7-oxabicyclo[2.2.1]heptan-2-yl]formamido}ethyl]boronic acid]	> 30	–	0.5 to 5
Cc1cccc2c1OC[C@H]2C[C@H](NC(=O)[C@@H]1C[C@H]2CC[C@@H]1O2)B(O)O [compound 15, [(1R)-2-[(3S)-7-methyl-2,3-dihydro-1-benzofuran-3-yl]-1-{[(1S,2R,4R)-7-oxabicyclo[2.2.1]heptan-2-yl]formamido}ethyl]boronic acid]	5 to 30	+++++ (Selectivity ≥700)	< 0.05
O=C(N[C@@H](C[C@@H]1COc2ccccc21)B(O)O)[C@]12CC[C@H](O1)c1ccccc12 [compound 16, [(1R)-2-[(3S)-2,3-dihydro-1-benzofuran-3-yl]-1-{[(1R,8S)-11-oxatricyclo[6.2.1.0^2,7]undeca-2(7),3,5-trien-1-yl]formamido}ethyl]boronic acid]	5 to 30	+++++ (Selectivity ≥700)	< 0.05
O=C(N[C@@H](Cc1coc2ccccc12)B(O)O)[C@H]1C2C(=O)N(C3CC3)C[C@]23C=C[C@H]1O3 (stereo partly drawn) [compound 17, [(1R)-2-(1-benzofuran-3-yl)-1-{[(1S,6S,7R)-3-cyclopropyl-4-oxo-10-oxa-3-azatricyclo[5.2.1.0^1,5]dec-8-en-6-yl]formamido}ethyl]boronic acid]	5 to 30	++ (100 ≤ Selectivity < 300)	< 0.05
O=C(N[C@@H](C[C@@H]1COc2ccccc21)B(O)O)[C@@]12CC[C@@H](O1)c1ccccc12 [compound 18, [(1R)-2-[(3S)-2,3-dihydro-1-benzofuran-3-yl]-1-{[(1S,8R)-11-oxatricyclo[6.2.1.0^2,7]undeca-2(7),3,5-trien-1-yl]formamido}ethyl]boronic acid]	5 to 30	+++++ (Selectivity ≥700)	< 0.05
Cc1cccc2c(C[C@H](NC(=O)[C@]34CC[C@H](O3)c3ccccc34)B(O)O)coc12 [compound 19, [(1R)-2-(7-methyl-1-benzofuran-3-yl)-1-{[(1R,8S)-11-oxatricyclo[6.2.1.0^2,7]undeca-2,4,6-trien-1-yl]formamido}ethyl]boronic acid]	5 to 30	+++++ (Selectivity ≥700)	< 0.05
Cc1cccc2c(C[C@H](NC(=O)[C@@]34CC[C@@H](O3)c3ccccc34)B(O)O)coc12 [compound 20, [(1R)-2-(7-methyl-1-benzofuran-3-yl)-1-{[(1S,8R)-11-oxatricyclo[6.2.1.0^2,7]undeca-2,4,6-trien-1-yl]formamido}ethyl]boronic acid]	5 to 30	++++ (500 ≤ Selectivity < 700)	< 0.05
C[C@]12CC[C@](C(=O)N[C@@H](C[C@@H]3COc4ccccc43)B(O)O)(O1)c1ccccc12 [compound 21, [(1R)-2-[(3S)-2,3-dihydro-1-benzofuran-3-yl]-1-{[(1S,8R)-8-methyl-11-oxatricyclo[6.2.1.0^2,7]undeca-2,4,6-trien-1-yl]formamido}ethyl]boronic acid]	5 to 30	+++++ (Selectivity ≥700)	< 0.05
O=C(N[C@@H](Cc1coc2ccccc12)B(O)O)C1C[C@H]2O[C@@H]1c1ccccc12 (stereo partly drawn) [compound 22, [(1R)-2-(1-benzofuran-3-yl)-1-{[(1R,8S)-11-oxatricyclo[6.2.1.0^2,7]undeca-2(7),3,5-trien-9-yl]formamido}ethyl]boronic acid]	5 to 30	++ (100 ≤ Selectivity < 300)	< 0.05
C[C@@]12CC[C@@](C(=O)N[C@@H](C[C@@H]3COc4ccccc43)B(O)O)(O1)c1ccccc12 [compound 23, [(1R)-2-[(3S)-2,3-dihydro-1-benzofuran-3-yl]-1-{[(1R,8S)-8-methyl-11-oxatricyclo[6.2.1.0^2,7]undeca-2,4,6-trien-1-yl]formamido}ethyl]boronic acid]	5 to 30	+++++ (Selectivity ≥700)	< 0.05
O=C(N[C@@H](Cc1coc2ccccc12)B(O)O)C1C[C@@H]2O[C@H]1c1ccccc12 (stereo partly drawn) [compound 24, [(1R)-2-(1-benzofuran-3-yl)-1-{[(1S,8R)-11-oxatricyclo[6.2.1.0^2,7]undeca-2(7),3,5-trien-9-yl]formamido}ethyl]boronic acid]	0.05 to 0.5	+ (Selectivity <100)	< 0.05
